The kinase profiling compilation of Christmann-Franck et al. (2016)

Assays:
Test in all cases: KINOMEscan competition binding
Details in all cases: compound 10.0 µM
ACVR2A (human) = ACVR2A (human) (UniProt P27037)
ADCK3 (human) = ADCK3 (human) (UniProt Q8NI60)
AKT2 (human) = AKT2 (human) (UniProt P31751)
BMPR1B (human) = BMPR1B (human) (UniProt O00238)
CDK3 (human) = CDK3 (human) (UniProt Q00526)
CSF1R (human) = CSF1R (human) (UniProt P07333)
DAPK2 (human) = DAPK2 (human) (UniProt Q9UIK4)
IGF1R (human) = IGF1R (human) (UniProt P08069)
INSRR (human) = INSRR (human) (UniProt P14616)
[1] = biological target: JAK2 JH1 catalytic (human) (UniProt O60674)
[2] = biological target: JAK3 JH1 catalytic (human) (UniProt P52333)
LIMK1 (human) = LIMK1 (human) (UniProt P53667)
MAP2K6 (human) = MAP2K6 (human) (UniProt P52564)
MAPK14 (human) = MAPK14 (human) (UniProt Q16539)
MAPK6 (human) = MAPK6 (human) (UniProt Q16659)
Chain of MAPK6 (human) (Q16659 whole entry, looked up): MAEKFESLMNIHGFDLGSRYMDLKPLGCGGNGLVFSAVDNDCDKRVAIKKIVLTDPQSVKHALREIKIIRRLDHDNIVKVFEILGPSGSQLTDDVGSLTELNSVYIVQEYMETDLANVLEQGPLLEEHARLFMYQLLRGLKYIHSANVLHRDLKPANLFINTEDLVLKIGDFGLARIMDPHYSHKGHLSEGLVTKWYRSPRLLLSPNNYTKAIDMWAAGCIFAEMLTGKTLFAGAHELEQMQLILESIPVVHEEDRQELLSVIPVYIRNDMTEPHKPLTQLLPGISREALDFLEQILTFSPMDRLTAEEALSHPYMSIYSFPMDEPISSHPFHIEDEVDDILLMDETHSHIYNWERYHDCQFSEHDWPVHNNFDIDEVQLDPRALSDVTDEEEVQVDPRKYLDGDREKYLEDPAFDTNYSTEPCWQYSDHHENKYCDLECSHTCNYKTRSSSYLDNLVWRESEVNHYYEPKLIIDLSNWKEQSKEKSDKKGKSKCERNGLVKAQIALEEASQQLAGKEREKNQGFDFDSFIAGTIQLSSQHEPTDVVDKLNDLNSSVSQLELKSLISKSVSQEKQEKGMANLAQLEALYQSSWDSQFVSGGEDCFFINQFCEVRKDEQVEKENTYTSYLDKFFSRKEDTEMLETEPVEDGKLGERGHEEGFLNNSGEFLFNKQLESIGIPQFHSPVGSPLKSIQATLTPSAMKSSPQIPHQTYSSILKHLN

MAPKAPK5 (human) = MAPKAPK5 (human) (UniProt Q8IW41)
MTOR (human) = MTOR (human) (UniProt P42345)
MYO3A (human) = MYO3A (human) (UniProt Q8NEV4)
NEK11 (human) = NEK11 (human) (UniProt Q8NG66)
NEK9 (human) = NEK9 (human) (UniProt Q8TD19)
PDPK1 (human) = PDPK1 (human) (UniProt O15530)
PIK3C2G (human) = PIK3C2G (human) (UniProt O75747)
Chain of PIK3C2G (human) (O75747 whole entry, looked up): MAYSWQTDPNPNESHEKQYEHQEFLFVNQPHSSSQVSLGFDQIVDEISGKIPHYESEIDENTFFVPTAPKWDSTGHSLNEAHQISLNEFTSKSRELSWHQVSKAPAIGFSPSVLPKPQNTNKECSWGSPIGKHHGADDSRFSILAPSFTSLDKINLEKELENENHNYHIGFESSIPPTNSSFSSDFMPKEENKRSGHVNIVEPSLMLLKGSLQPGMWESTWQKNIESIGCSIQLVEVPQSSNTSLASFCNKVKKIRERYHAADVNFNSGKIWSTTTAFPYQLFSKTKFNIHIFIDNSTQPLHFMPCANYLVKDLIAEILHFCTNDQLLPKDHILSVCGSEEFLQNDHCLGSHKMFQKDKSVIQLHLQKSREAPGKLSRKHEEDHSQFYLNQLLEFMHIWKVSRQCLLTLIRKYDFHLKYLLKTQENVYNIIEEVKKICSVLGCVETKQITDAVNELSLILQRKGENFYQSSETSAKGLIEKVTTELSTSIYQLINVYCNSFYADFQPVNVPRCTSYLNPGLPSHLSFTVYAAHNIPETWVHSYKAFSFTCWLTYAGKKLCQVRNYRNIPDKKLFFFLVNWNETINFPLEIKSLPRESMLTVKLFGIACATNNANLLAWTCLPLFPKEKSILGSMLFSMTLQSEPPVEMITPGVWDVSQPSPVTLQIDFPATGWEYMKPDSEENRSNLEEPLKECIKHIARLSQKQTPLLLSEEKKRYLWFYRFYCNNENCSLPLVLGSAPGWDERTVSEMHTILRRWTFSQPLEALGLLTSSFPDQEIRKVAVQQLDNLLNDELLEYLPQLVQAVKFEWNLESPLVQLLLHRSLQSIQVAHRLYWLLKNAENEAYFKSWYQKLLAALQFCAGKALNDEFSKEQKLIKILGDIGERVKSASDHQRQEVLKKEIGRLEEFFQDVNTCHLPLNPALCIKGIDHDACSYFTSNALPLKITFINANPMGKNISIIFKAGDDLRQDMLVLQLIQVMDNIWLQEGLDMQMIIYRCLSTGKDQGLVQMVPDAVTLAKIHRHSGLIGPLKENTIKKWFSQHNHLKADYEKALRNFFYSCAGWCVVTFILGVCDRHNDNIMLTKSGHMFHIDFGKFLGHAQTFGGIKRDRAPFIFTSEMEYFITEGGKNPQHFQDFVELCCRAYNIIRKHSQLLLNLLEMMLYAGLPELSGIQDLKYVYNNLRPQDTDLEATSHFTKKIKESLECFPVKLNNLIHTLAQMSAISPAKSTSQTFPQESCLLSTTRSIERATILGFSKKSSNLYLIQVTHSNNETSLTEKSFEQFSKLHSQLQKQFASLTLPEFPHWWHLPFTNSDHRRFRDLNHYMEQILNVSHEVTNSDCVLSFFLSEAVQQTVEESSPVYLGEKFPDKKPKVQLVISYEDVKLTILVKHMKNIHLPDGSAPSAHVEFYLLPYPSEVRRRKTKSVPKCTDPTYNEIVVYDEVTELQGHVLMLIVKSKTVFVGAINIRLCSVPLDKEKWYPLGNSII

PLK3 (human) = PLK3 (human) (UniProt Q9H4B4)
Chain of PLK3 (human) (Q9H4B4 whole entry, looked up): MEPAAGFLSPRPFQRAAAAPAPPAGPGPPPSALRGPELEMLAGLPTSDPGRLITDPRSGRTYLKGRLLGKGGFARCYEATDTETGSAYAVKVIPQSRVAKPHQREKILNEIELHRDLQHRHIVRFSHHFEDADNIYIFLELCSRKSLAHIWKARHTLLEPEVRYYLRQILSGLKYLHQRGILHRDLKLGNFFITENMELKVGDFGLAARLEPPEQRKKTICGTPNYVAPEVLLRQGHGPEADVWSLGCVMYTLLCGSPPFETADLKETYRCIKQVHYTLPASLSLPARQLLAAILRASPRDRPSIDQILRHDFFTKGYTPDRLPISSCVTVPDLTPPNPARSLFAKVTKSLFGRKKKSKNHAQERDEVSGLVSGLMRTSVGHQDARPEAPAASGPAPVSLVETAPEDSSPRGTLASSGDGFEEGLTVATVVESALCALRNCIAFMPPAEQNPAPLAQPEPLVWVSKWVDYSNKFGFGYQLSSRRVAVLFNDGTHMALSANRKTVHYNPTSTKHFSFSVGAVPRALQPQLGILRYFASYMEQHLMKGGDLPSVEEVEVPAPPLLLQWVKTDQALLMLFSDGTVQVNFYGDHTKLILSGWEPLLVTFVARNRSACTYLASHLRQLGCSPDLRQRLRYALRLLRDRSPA

PRKAA2 (human) = PRKAA2 (human) (UniProt P54646)
PRKACA (human) = PRKACA (human) (UniProt P17612)
PRKCE (human) = PRKCE (human) (UniProt Q02156)
Chain of PRKCE (human) (Q02156 whole entry, looked up): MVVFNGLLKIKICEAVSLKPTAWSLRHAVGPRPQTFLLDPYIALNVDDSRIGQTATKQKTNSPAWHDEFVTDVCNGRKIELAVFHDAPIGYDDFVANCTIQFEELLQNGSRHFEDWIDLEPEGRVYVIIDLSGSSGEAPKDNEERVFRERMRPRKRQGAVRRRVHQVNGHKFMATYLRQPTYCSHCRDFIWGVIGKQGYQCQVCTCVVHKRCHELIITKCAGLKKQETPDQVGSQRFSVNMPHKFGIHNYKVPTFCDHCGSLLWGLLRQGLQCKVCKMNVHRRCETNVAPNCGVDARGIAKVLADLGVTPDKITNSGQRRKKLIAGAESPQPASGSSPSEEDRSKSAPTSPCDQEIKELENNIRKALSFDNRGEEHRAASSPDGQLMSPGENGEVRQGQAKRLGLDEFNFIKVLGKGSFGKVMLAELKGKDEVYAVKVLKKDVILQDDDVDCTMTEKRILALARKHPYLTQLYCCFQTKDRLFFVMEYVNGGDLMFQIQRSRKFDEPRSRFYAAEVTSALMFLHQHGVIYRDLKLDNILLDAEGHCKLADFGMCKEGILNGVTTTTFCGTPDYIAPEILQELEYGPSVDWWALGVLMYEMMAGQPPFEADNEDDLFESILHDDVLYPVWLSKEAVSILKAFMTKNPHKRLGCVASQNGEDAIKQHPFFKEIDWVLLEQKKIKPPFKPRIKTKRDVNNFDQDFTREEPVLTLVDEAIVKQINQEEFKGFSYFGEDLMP

PRKCQ (human) = PRKCQ (human) (UniProt Q04759)
PRKD2 (human) = PRKD2 (human) (UniProt Q9BZL6)
PRKD3 (human) = PRKD3 (human) (UniProt O94806)
RIOK2 (human) = RIOK2 (human) (UniProt Q9BVS4)
SGK3 (human) = SGK3 (human) (UniProt Q96BR1)
SIK1 (human) = SIK1 (human) (UniProt P57059)
SRPK3 (human) = SRPK3 (human) (UniProt Q9UPE1)
STK32A (human) = STK32A (human) (UniProt Q8WU08)
STK39 (human) = STK39 (human) (UniProt Q9UEW8)
TGFBR2 (human) = TGFBR2 (human) (UniProt P37173)
CSK (human) = CSK (human) (UniProt P41240)
Chain of CSK (human) (P41240 whole entry, looked up): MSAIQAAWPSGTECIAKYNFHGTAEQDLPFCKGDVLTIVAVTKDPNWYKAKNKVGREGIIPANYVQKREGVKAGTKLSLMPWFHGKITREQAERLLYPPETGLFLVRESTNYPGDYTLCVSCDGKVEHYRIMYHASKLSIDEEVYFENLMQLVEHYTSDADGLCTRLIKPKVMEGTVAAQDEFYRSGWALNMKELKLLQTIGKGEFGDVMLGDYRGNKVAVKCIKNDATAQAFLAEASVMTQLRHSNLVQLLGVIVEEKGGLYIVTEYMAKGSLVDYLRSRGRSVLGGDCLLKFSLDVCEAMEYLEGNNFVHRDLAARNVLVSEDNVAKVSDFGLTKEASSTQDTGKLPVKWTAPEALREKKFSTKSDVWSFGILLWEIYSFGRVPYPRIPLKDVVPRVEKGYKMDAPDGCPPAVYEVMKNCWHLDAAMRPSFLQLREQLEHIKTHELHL

ICK (human) = ICK (human) (UniProt Q9UPZ9)
TESK1 (human) = TESK1 (human) (UniProt Q15569)
TIE1 (human) = TIE1 (human) (UniProt P35590)

Chain of CSF1R (human) (P07333 whole entry, looked up): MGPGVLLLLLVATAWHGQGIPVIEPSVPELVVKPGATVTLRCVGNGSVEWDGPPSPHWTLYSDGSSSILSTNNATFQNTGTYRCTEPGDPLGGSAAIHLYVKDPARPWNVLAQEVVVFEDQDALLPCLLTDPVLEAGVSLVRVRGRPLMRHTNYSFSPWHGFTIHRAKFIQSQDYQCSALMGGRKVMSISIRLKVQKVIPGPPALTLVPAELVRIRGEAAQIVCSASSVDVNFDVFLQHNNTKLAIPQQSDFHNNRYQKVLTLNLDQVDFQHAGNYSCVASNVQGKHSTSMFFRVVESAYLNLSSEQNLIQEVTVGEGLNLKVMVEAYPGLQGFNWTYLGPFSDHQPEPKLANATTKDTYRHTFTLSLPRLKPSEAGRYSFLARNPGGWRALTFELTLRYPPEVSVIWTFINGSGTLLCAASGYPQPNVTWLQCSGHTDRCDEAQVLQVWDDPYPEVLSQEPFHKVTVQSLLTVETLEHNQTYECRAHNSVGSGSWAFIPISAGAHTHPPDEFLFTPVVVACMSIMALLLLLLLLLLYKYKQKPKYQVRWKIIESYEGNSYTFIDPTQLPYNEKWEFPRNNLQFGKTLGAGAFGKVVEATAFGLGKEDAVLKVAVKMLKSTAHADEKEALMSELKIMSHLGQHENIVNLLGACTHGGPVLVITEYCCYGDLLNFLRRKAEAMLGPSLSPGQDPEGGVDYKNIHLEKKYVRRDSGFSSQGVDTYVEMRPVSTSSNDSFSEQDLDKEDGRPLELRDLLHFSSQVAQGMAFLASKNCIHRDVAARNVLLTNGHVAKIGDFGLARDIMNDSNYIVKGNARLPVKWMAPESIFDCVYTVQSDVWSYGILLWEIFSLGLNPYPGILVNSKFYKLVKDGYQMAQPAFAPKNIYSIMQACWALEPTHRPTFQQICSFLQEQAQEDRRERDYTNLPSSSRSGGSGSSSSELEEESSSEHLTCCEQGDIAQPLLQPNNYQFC

Row | SMILES | kinase still bound, per cent of control (ACVR2A (human)) [%] | kinase still bound, per cent of control (ADCK3 (human)) [%] | kinase still bound, per cent of control (AKT2 (human)) [%] | kinase still bound, per cent of control (BMPR1B (human)) [%] | kinase still bound, per cent of control (CDK3 (human)) [%] | kinase still bound, per cent of control (DAPK2 (human)) [%] | kinase still bound, per cent of control (IGF1R (human)) [%] | kinase still bound, per cent of control (INSRR (human)) [%] | kinase still bound, per cent of control [1] [%] | kinase still bound, per cent of control [2] [%] | kinase still bound, per cent of control (LIMK1 (human)) [%] | kinase still bound, per cent of control (MAP2K6 (human)) [%] | kinase still bound, per cent of control (MAPK14 (human)) [%] | kinase still bound, per cent of control (MAPK6 (human)) [%] | kinase still bound, per cent of control (MAPKAPK5 (human)) [%] | kinase still bound, per cent of control (MYO3A (human)) [%] | kinase still bound, per cent of control (NEK9 (human)) [%] | kinase still bound, per cent of control (PDPK1 (human)) [%] | kinase still bound, per cent of control (PIK3C2G (human)) [%] | kinase still bound, per cent of control (PRKAA2 (human)) [%] | other results
1 | C[C@@H](Oc1cc(-c2cnn(C3CCNCC3)c2)cnc1N)c1c(Cl)ccc(F)c1Cl | 30 | 53 | 100 | 61 | 100 | 97 | 0.9 | 0.25 | 1.4 | 0.65 | 2.7 | 54 | 100 | 90 | 68 | 66 | 6.2 | 100 | 22 | 17 | kinase still bound, per cent of control (CSF1R (human)): 0.15%; kinase still bound, per cent of control (MTOR (human)): 100%; kinase still bound, per cent of control (NEK11 (human)): 98%; kinase still bound, per cent of control (PLK3 (human)): 85%; kinase still bound, per cent of control (PRKACA (human)): 100%; kinase still bound, per cent of control (PRKCE (human)): 100%; kinase still bound, per cent of control (PRKCQ (human)): 88%; kinase still bound, per cent of control (PRKD2 (human)): 3.3%; kinase still bound, per cent of control (PRKD3 (human)): 3%; kinase still bound, per cent of control (RIOK2 (human)): 56%; kinase still bound, per cent of control (SGK3 (human)): 100%; kinase still bound, per cent of control (SIK1 (human)): 24%; kinase still bound, per cent of control (SRPK3 (human)): 15%; kinase still bound, per cent of control (STK32A (human)): 86%; kinase still bound, per cent of control (STK39 (human)): 99%; kinase still bound, per cent of control (TGFBR2 (human)): 100%
2 | COc1cc(N2CCN(C)CC2)ccc1Nc1ncc2c(n1)N(C)c1ccccc1C(=O)N2C | 100 | 100 | 100 | 100 | 100 | 100 | 100 | 100 | 100 | 100 | 100 | 100 | 100 | 100 | 100 | 100 | 100 | 100 | 100 | 100 | kinase still bound, per cent of control (CSF1R (human)): 16%; kinase still bound, per cent of control (CSK (human)): 100%; kinase still bound, per cent of control (ICK (human)): 100%; kinase still bound, per cent of control (PLK3 (human)): 100%; kinase still bound, per cent of control (PRKACA (human)): 100%; kinase still bound, per cent of control (PRKCE (human)): 100%; kinase still bound, per cent of control (PRKCQ (human)): 100%; kinase still bound, per cent of control (PRKD2 (human)): 0.55%; kinase still bound, per cent of control (PRKD3 (human)): 5.4%; kinase still bound, per cent of control (RIOK2 (human)): 100%; kinase still bound, per cent of control (SIK1 (human)): 100%; kinase still bound, per cent of control (SRPK3 (human)): 100%; kinase still bound, per cent of control (STK39 (human)): 23%; kinase still bound, per cent of control (TESK1 (human)): 100%; kinase still bound, per cent of control (TGFBR2 (human)): 100%; kinase still bound, per cent of control (TIE1 (human)): 100%
3 | CNC(=O)c1cc(Oc2ccc(NC(=O)Nc3ccc(Cl)c(C(F)(F)F)c3)cc2)ccn1 | 100 | 100 | 70 | 98 | 52 | 87 | 100 | 97 | 80 | 58 | 30 | 76 | 0.2 | 100 | 100 | 67 | 79 | 76 | 80 | 74 | kinase still bound, per cent of control (CSK (human)): 70%; kinase still bound, per cent of control (ICK (human)): 92%; kinase still bound, per cent of control (MTOR (human)): 80%; kinase still bound, per cent of control (NEK11 (human)): 100%; kinase still bound, per cent of control (PRKACA (human)): 63%; kinase still bound, per cent of control (PRKCE (human)): 86%; kinase still bound, per cent of control (PRKCQ (human)): 84%; kinase still bound, per cent of control (PRKD2 (human)): 96%; kinase still bound, per cent of control (PRKD3 (human)): 67%; kinase still bound, per cent of control (RIOK2 (human)): 97%; kinase still bound, per cent of control (SGK3 (human)): 82%; kinase still bound, per cent of control (SIK1 (human)): 100%; kinase still bound, per cent of control (SRPK3 (human)): 90%; kinase still bound, per cent of control (STK32A (human)): 100%; kinase still bound, per cent of control (STK39 (human)): 100%; kinase still bound, per cent of control (TESK1 (human)): 62%; kinase still bound, per cent of control (TGFBR2 (human)): 35%
4 | CCN(CC)CCCCNc1ncc2c(n1)N(C)C(=O)N(c1c(Cl)c(OC)cc(OC)c1Cl)C2 | 100 | 100 | 100 | 100 | 100 | 100 | 100 | 100 | 100 | 100 | 100 | 100 | 100 | 100 | 100 | 100 | 100 | 100 | 100 | 100 | kinase still bound, per cent of control (CSF1R (human)): 0.15%; kinase still bound, per cent of control (CSK (human)): 100%; kinase still bound, per cent of control (ICK (human)): 100%; kinase still bound, per cent of control (PLK3 (human)): 100%; kinase still bound, per cent of control (PRKACA (human)): 100%; kinase still bound, per cent of control (PRKCE (human)): 100%; kinase still bound, per cent of control (PRKCQ (human)): 100%; kinase still bound, per cent of control (PRKD2 (human)): 100%; kinase still bound, per cent of control (PRKD3 (human)): 100%; kinase still bound, per cent of control (RIOK2 (human)): 100%; kinase still bound, per cent of control (SIK1 (human)): 100%; kinase still bound, per cent of control (SRPK3 (human)): 100%; kinase still bound, per cent of control (STK39 (human)): 100%; kinase still bound, per cent of control (TESK1 (human)): 100%; kinase still bound, per cent of control (TGFBR2 (human)): 100%; kinase still bound, per cent of control (TIE1 (human)): 10%
